Laboratory results as given in US20220331333A1, “RHOA PATHWAY INHIBITOR IN THE TREATMENT OF NEURODEVELOPMENTAL DISORDER OR NEUROPSYCHIATRIC DISORDER” (UNIVERSITE DE STRASBOURG, priority 2021, published 2022).

Key:
[1] = test system: phosphorylated form of MLC (P-MLC); experiment: Western blot of phosphorylated MLC in hippocampal lysates, Kctd13+/− line; assay type: in vivo, mouse; settings: Kctd13+/− mutant mice, fasudil for 6 weeks, 18-week-old mice
Description: (§1) At 12 weeks of age, three independent cohorts of mice for each line, with wild-type (wt) and mutant littermates, were subjected to a battery of behavioral tests (see below) for 2 weeks. Then, 14 weeks old mice were randomly divided into 2 groups: one treated with fasudil administrated orally ad libitum in drinking water to reach a dose of 100 mg/kg/day and a second with no treatment. The dose was estimated to 152.7 mg in feeding bottle (250 ml) changed twice a week considering the previous study in which the drinking volume was evaluated to about 4.6 ml/day/mouse. […]
(§2) Fresh hippocampal tissues were isolated by rapid decapitation/dissection of naive mice and snap frozen. […] Protein concentration was determined by Pierce™ BCA Protein Assay Kit (23225, Thermo Fisher Scientific, Strasbourg). […] Total levels of RHOA protein and Myosin Light Chain phosphorylation by Myosin Light Chain Kinase via RHOA pathway were analyzed using Western Blot. […] Signals were quantified using ImageJ and analyzed using Microsoft Excel and GraphPad Prism. […] The ratio of protein level or phosphorylation level against control β-actin protein level (detected with a mouse monoclonal Anti-βActin-Peroxidase antibody (A3854 Sigma)) was normalized to untreated wt sample mean. […]

[2] = test system: 16p11.2 Del/+ mouse model; experiment: Open field test after chronic fasudil treatment, 16p11.2 Del/+ line; assay type: in vivo; settings: 16p11.2 Del/+ and wt littermates, 100 mg/kg/day orally in drinking water, 4 weeks
Description: (§3) In this study, the inventors developed a protocol for a pre-clinical treatment (FIG. 1) with the drug fasudil hydrochloride or HA1077 ([…], LC laboratories Boston, Mass., USA). […] Animal bedding was changed once a week. At 11 weeks, animals were transferred from the animal facility to the phenotyping area. The temperature was kept at 21±2° C., and the light cycle was controlled as 12 h light and 12 h dark. At 12 weeks of age, three independent cohorts of mice for each line, with wild-type (wt) and mutant littermates, were subjected to a battery of behavioral tests (see below) for 2 weeks. […] The dose was estimated to 152.7 mg in feeding bottle (250 ml) changed twice a week considering the previous study in which the drinking volume was evaluated to about 4.6 ml/day/mouse. […] During each session the exploration activity was analyzed by measuring the total distance travelled, evaluated the adaptation of the mice to the environment over time, by splitting the data in intervals of 10 minutes and assessed the vertical activity through the number of rears. […] The exploration time of both objects A was recorded. […] The exploration time of the two objects (familiar object and novel object) was recorded. […] Data from behavioral characterization of Kctd13^+/- and 16p11.2 Del/+ mouse models were analyzed through the Student t-test (see supplementary table 1 and table 2 as a summary). […]

[3] = test system: phosphorylated form of MLC (P-MLC); experiment: Western blot of phosphorylated MLC in hippocampal lysates, 16p11.2 Del/+ line; assay type: in vivo, mouse; settings: fasudil for 6 weeks, 18-week-old mice
Description: as §1, §2

RHOA [4] = experiment: Western blot of RHOA in hippocampal lysates, Kctd13+/− line; assay type: in vivo, mouse; settings: fasudil for 6 weeks, 18-week-old mice
Description: as §1, §2

Kctd13^+/− mouse model [5] = experiment: Open field test after chronic fasudil treatment, Kctd13+/− line; assay type: in vivo; settings: Kctd13+/− and wt littermates, 100 mg/kg/day orally in drinking water, 4 weeks
Description: as §3

Kctd13^+/− mouse model [6] = experiment: Novel object recognition (NOR) test after chronic fasudil treatment, Kctd13+/− line; assay type: in vivo; settings: Kctd13+/− mice, 100 mg/kg/day orally in drinking water, tested at 19 weeks, 3 h retention delay
Description: as §3

RHOA [7] = experiment: Western blot of RHOA in hippocampal lysates, 16p11.2 Del/+ line; assay type: in vivo, mouse; settings: fasudil for 6 weeks, 18-week-old mice
Description: as §1, §2

[8] = test system: 16p11.2 Del/+ mouse model; experiment: Novel object recognition (NOR) test after chronic fasudil treatment, 16p11.2 Del/+ line; assay type: in vivo; settings: 16p11.2 Del/+ mice, 100 mg/kg/day orally in drinking water, tested at 19 weeks, 3 h retention delay
Description: as §3

Compound: O=S(=O)(c1cccc2cnccc12)N1CCCNCC1 [fasudil, hexahydro-1-(5-isoquinolinesulfonyl)-1H-1,4-diazepine]
- MLC phosphorylation levels in hippocampus [1]: reduced MLC phosphorylation levels
- vertical activity (number of rears) in open field [2]: did not have effect on any genotype for the vertical activity
- locomotor exploration activity (total distance travelled) in open field ([2]; treated vs non-treated): did not change the locomotor exploration activity
- MLC phosphorylation levels in hippocampus ([3]; 16p11.2 Del/+ mutant mice): restored a normal MLC phosphorylation
- MLC phosphorylation levels in hippocampus ([3]; wt littermates of the 16p11.2 Del/+ line): induced increased MLC phosphorylation in wt mice
- RHOA protein levels in hippocampus (RHOA [4]): did not cause changes in RHOA protein levels
- vertical activity (number of rears) in open field (Kctd13^+/− mouse model [5]): did not have effect on any genotype for the vertical activity
- locomotor exploration activity (total distance travelled) in open field (Kctd13^+/− mouse model [5]; treated vs non-treated): did not change the locomotor exploration activity
- novel object recognition (recognition index vs 50% chance level) (Kctd13^+/− mouse model [6]): significantly improved the NOR defect
- RHOA protein levels in hippocampus (RHOA [7]): did not cause changes in RHOA protein levels
- novel object recognition (recognition index vs 50% chance level) [8]: significantly improved the NOR defect
